Where “and” joins values, the source holds several entries; their conditions need not be identical. Identical values can stand only once.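 Cells were grown in 96-well plates and exposed to each compound for 48 hours at five concentrations; endpoints were interpolated linearly between bracketing concentrations, or set to the highest concentration if not reached. GI50 = concentration required for 50% inhibition of growth. The concentration for full growth arrest is given as TGI.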
Columns and labels:
Assay in all cases: DTP human tumour cell line panel, 48 h
NCI-H522 lung = tested on: NCI-H522 lung
BT-549 breast = tested on: BT-549 breast
HOP-62 NSCLC = tested on: HOP-62 NSCLC
HS 578T breast = tested on: HS 578T breast
T-47D breast = tested on: T-47D breast
A549 NSCLC = tested on: A549 NSCLC
A498 renal = tested on: A498 renal
SK-MEL-5 melanoma = tested on: SK-MEL-5 melanoma
OVCAR-5 ovarian = tested on: OVCAR-5 ovarian
OVCAR-8 ovarian = tested on: OVCAR-8 ovarian

| Compound | GI50 (NCI-H522 lung) [µM] | TGI (NCI-H522 lung) | GI50 (BT-549 breast) [µM] | TGI (BT-549 breast) | GI50 (HOP-62 NSCLC) [µM] | TGI (HOP-62 NSCLC) | GI50 (HS 578T breast) [µM] | TGI (HS 578T breast) | GI50 (T-47D breast) [µM] | TGI (T-47D breast) [µM] | GI50 (A549 NSCLC) [µM] | TGI (A549 NSCLC) | GI50 (A498 renal) [µM] | TGI (A498 renal) | GI50 (SK-MEL-5 melanoma) [µM] | TGI (SK-MEL-5 melanoma) | GI50 (OVCAR-5 ovarian) [µM] | TGI (OVCAR-5 ovarian) | GI50 (OVCAR-8 ovarian) [µM] | TGI (OVCAR-8 ovarian) [µM] |
| --- | --- | --- | --- | --- | --- | --- | --- | --- | --- | --- | --- | --- | --- | --- | --- | --- | --- | --- | --- | --- |
| COc1cc(-n2ccnc2-c2ccc3ccccc3c2)cc(OC)c1OC | < 0.0175 | 13.2 µM | 0.246 | 14.9 µM | 0.0895 | 26 µM | 0.135 | 10.5 µM | 0.633 | 60.7 | 0.12 | > 45.4 µM | 0.0451 | 1.42 µM | < 0.0198 | 12.3 µM | 0.408 | > 93.6 µM | 0.398 | > 53.1 |
| COC[C@H](NC(=O)c1cnc(C)s1)C(=O)N[C@@H](COC)C(=O)N[C@@H](Cc1ccccc1)C(=O)[C@@]1(C)CO1 | 12.8 | 63 µM | 14.3 | 42.6 µM | 31.4 | > 95.4 µM | 26.5 | > 100 µM | 19.9 | > 71.2 | 42.9 | > 100 µM | 45.3 | > 100 µM | 19.9 | 47.1 µM | 33.3 | > 94 µM | > 93.2 | > 100 |
| CC(=O)O.CN1[CH-]N(Cc2ccc(C#N)cc2)c2ccccc21.[Ag+] | 14.5 | 82.4 µM | 18.8 | 38.4 µM | 47.4 | > 100 µM | > 100 | > 100 µM | 14.8 | 60.1 | 32.3 | > 100 µM | > 100 | > 100 µM | 12.7 | 27.6 µM | 58.4 | > 100 µM | 23.9 | 75.9 |
| COc1ccc(Nc2nc(NCCNc3ccnc4cc(Cl)ccc34)nc(N3CCOCC3)n2)cc1 | 3.85 | 11.5 µM | 9.92 | 22.1 µM | 8.09 | 21.6 µM | 3.91 | 24.1 µM | 11.6 | 28 | 4.87 | 20.3 µM | 0.272 | 2.19 µM | 1.59 | 3.04 µM | 15.7 | 31.4 µM | 6.46 | 27.4 |
| NCCCCC(NC(=O)C(N)CCCN=C(N)N)C(=O)NC(CCCCN)C(=O)NC(CCCN=C(N)N)C(=O)NC(CCCN=C(N)N)C(=O)NC(CCC(N)=O)C(=O)NC(CCCN=C(N)N)C(=O)NC(CCCN=C(N)N)C(=O)NC(CCCN=C(N)N)C(=O)NCC(=O)NCC(=O)O (centres undefined) | > 50 | > 50 µM | > 50 | > 50 µM | > 50 | > 50 µM | > 50 | > 50 µM | > 50 | > 50 | > 50 | > 50 µM | > 50 | > 50 µM | > 50 | > 50 µM | > 50 | > 50 µM | > 50 | > 50 |
| OC1CC2CCC(C1)N2CCCN1c2ccccc2Sc2ccc(Cl)cc21 (centres undefined) | – | 4.19 µM | – | 10.7 µM | – | 10.4 µM | – | 4.59 µM | – | 5.44 | – | 7.45 µM | – | 5.62 µM | – | 3.13 µM | – | 8.01 µM | – | 4.86 |
| CCOC(=O)c1ccc(-n2cnc(-c3ccc([N+](=O)[O-])cc3)c2)cc1 | – | 36 µM | – | > 100 µM | – | > 100 µM | – | > 100 µM | – | > 100 | – | > 100 µM | – | > 100 µM | – | 74.5 µM | – | > 100 µM | – | > 100 |
| COc1cc2nc(N3CCCN(C)CC3)nc(NC3CCN(Cc4ccccc4)CC3)c2cc1OC | 2.02 | 4.22 µM | 1.94 | 4.68 µM | 3.23 | 10.6 µM | 2.04 | 5.59 µM | 2.53 | 6.25 | 2.94 | 10.2 µM | 0.904 | 7.66 µM | 1.73 | 3.14 µM | 4.47 | 15.1 µM | 3.26 | 11.8 |
| Oc1ccccc1-c1nn(CNc2ccc(Cl)cc2)c(=S)o1 | > 100 | > 100 µM | 61.1 | > 100 µM | > 100 | > 100 µM | > 100 | > 100 µM | 57 | > 100 | 26.3 | 99.2 µM | > 100 | > 100 µM | 2.31 | > 100 µM | > 100 | > 100 µM | 30.2 | 89.9 |
| CCOC(=O)c1[nH]c2cc(Cl)ccc2c1[C@@H](C(=O)NC(C)(C)C)N(CC)C(=O)CCCCC#Cc1cccc2c1CN(C1CCC(=O)NC1=O)C2=O (some centres undefined) | 1.8 | 25.8 µM | < 0.0197 | 4.81 µM | < 0.01 | 6.81 µM | < 0.01 | 6.66 µM | < 0.01 | 7.59 | 1.3 | > 89.4 µM | < 0.0104 | 0.0723 µM | 1.22 | 2.56 µM | 2.08 | 40.2 µM | < 0.01 | 35 |
| COc1cc(CCC[P+](c2ccccc2)(c2ccccc2)c2ccccc2)c(OC)c2c1OCO2 | 1.43 | 12.1 µM | 1.08 | 8.5 µM | 2.91 | 11.3 µM | 1.74 | 8.54 µM | 0.419 | 14.7 | 3.95 | 68.9 µM | 1.41 | 4.28 µM | 1.21 | 2.5 µM | 2.38 | 37 µM | 2.36 | 24.2 |
| COc1ccc(-c2ncnc3c2ncn3CC#CCCl)cc1 | 3.09 | 14 µM | 2.98 | 13.6 µM | 1.79 | 3.31 µM | 3.8 | 22.1 µM | 2.89 | 12.7 | 7.39 | 30.7 µM | 2.15 | 12.5 µM | 3.16 | 12.4 µM | 3.25 | 12.1 µM | 11.6 | > 100 |
| O=C(O)Cc1cccc2c(=O)cc(-c3ccccc3)oc12 | 285 | 250 µM and > 773 µM | > 1000 | 250 µM and > 1000 µM | – | 250 µM and > 1000 µM | 415 | 209 µM and 889 µM | 690 | > 1000 | 728 | 250 µM and > 1000 µM | 307 | 250 µM and 979 µM | 407 | 250 µM and > 876 µM | > 1000 | 250 µM and > 1000 µM | 84.5 | > 1000 |

Source: PubChem BioAssay (NCI)
